Source: patent US11337976B2 (Plexxikon Inc., priority 2011, dated 2022)

Tested on: A375 melanoma cells (B-Raf V600E mutation)
Test: A375 (A375_P-ERK) cell activity / cell growth inhibition assay
Format: cell-based, human
Conditions: Homo sapiens, A-375; A375 cells (text: A375_P-ERK)
Method: Compounds are assessed in a variety of cell based assays. For example human cell lines with B-RafV600E mutation (A375 melanoma, SKMEL3 melanoma, and COLO205 colon adenocarcinoma), as well as tumorigenic cell lines with wild-type B-RAF (SW620 colon adenocarcinoma) or with Ras mutations (SKMEL2 melanoma and IPC298 melanoma).
On day 1, cells are counted, then centrifuged in a conical tube for 5 minutes at 1000 rpm.
On day 2, compound at a maximum concentration of 5 mM is serially diluted 1:3 (e.g. 10 μL with 30 μL dimethyl sulfoxide) for a total of 8 point titration with DMSO as a control. A 1 μL aliquot of each dilution point and control is added to 249 μL growth media and 50 μL is added to a well containing cells, providing 10 μM compound at the maximum concentration point. The cells are incubated for 3 days at 37° C. in 5% CO2.
ATPlite is added 25 μL to each well, shake for 2 minutes, and the cells are incubated at room temperature for 10 minutes, then luminescence is read on Safire reader. The measured luminescence correlates directly with cell number, such that the reading as a function of compound concentration is used to determine the IC50 value.

IC50, < 1 µM:
COc1ncc(-c2cnc3[nH]cc(C(=O)c4cccc(NS(=O)(=O)N5CCCC5)c4F)c3c2)c(OC)n1 [P-0044, N-[3-[5-(2,4-dimethoxypyrimidin-5-yl)-1H-pyrrolo[2,3-b]pyridine-3-carbonyl]-2-fluoro-phenyl]pyrrolidine-1-sulfonamide]
Cc1ccc(-c2cnc3[nH]cc(C(=O)c4cccc(NS(=O)(=O)N5CCCC5)c4F)c3c2)cn1 [P-0045, N-[2-fluoro-3-[5-(6-methyl-3-pyridyl)-1H-pyrrolo[2,3-b]pyridine-3-carbonyl]phenyl]pyrrolidine-1-sulfonamide]
CC(C)c1ncc(-c2cnc3[nH]cc(C(=O)c4cccc(NS(=O)(=O)N5CCCC5)c4F)c3c2)cn1 [P-0047, N-[2-fluoro-3-[5-(2-isopropylpyrimidin-5-yl)-1H-pyrrolo[2,3-b]pyridine-3-carbonyl]phenyl]pyrrolidine-1-sulfonamide]
COc1cc(-c2cnc3[nH]cc(C(=O)c4cccc(NS(=O)(=O)N5CCCC5)c4F)c3c2)ccc1C#N [P-0049, N-[3-[5-(4-cyano-3-methoxy-phenyl)-1H-pyrrolo[2,3-b]pyridine-3-carbonyl]-2-fluoro-phenyl]pyrrolidine-1-sulfonamide]
N#CC1(c2ccc(-c3cnc4[nH]cc(C(=O)c5cccc(NS(=O)(=O)N6CCCC6)c5F)c4c3)cc2)CC1 [P-0050, N-[3-[5-[4-(1-cyanocyclopropyl)phenyl]-1H-pyrrolo[2,3-b]pyridine-3-carbonyl]-2-fluoro-phenyl]pyrrolidine-1-sulfonamide]
CC(C)c1ncc(-c2cnc3[nH]cc(C(=O)c4cccc(NS(=O)(=O)N(C)C)c4F)c3c2)cn1 [P-0051, 3-[3-(dimethylsulfamoylamino)-2-fluoro-benzoyl]-5-(2-isopropylpyrimidin-5-yl)-1H-pyrrolo[2,3-b]pyridine]
CN(C)S(=O)(=O)Nc1cccc(C(=O)c2c[nH]c3ncc(-c4cnc(C5CC5)nc4)cc23)c1F [P-0052, 5-(2-cyclopropylpyrimidin-5-yl)-3-[3-(dimethylsulfamoylamino)-2-fluoro-benzoyl]-1H-pyrrolo[2,3-b]pyridine]
CN(C)S(=O)(=O)Nc1cccc(C(=O)c2c[nH]c3ncc(-c4ccc(C(F)(F)F)nc4)cc23)c1F [P-0053, 3-[3-(dimethylsulfamoylamino)-2-fluoro-benzoyl]-5-[6-(trifluoromethyl)-3-pyridyl]-1H-pyrrolo[2,3-b]pyridine]
COc1cc(-c2cnc3[nH]cc(C(=O)c4cccc(NS(=O)(=O)N(C)C)c4F)c3c2)ccc1C#N [P-0054, 5-(4-cyano-3-methoxy-phenyl)-3-[3-(dimethylsulfamoylamino)-2-fluoro-benzoyl]-1H-pyrrolo[2,3-b]pyridine]
CN(C)S(=O)(=O)Nc1cccc(C(=O)c2c[nH]c3ncc(-c4ccc(C5(C#N)CC5)cc4)cc23)c1F [P-0055, 5-[4-(1-cyanocyclopropyl)phenyl]-3-[3-(dimethylsulfamoylamino)-2-fluoro-benzoyl]-1H-pyrrolo[2,3-b]pyridine]
CCN(C)S(=O)(=O)Nc1cccc(C(=O)c2c[nH]c3ncc(-c4cnc(C)nc4)cc23)c1F [P-0056, 3-[3-[[ethyl(methyl)sulfamoyl]amino]-2-fluoro-benzoyl]-5-(2-methylpyrimidin-5-yl)-1H-pyrrolo[2,3-b]pyridine]
CCN(C)S(=O)(=O)Nc1cccc(C(=O)c2c[nH]c3ncc(-c4cnc(C(C)C)nc4)cc23)c1F [P-0057, 3-[3-[[ethyl(methyl)sulfamoyl]amino]-2-fluoro-benzoyl]-5-(2-isopropylpyrimidin-5-yl)-1H-pyrrolo[2,3-b]pyridine]
CCN(C)S(=O)(=O)Nc1cccc(C(=O)c2c[nH]c3ncc(-c4cnc(C5CC5)nc4)cc23)c1F [P-0058]
CCN(C)S(=O)(=O)Nc1cccc(C(=O)c2c[nH]c3ncc(-c4ccc(C(F)(F)F)nc4)cc23)c1F [P-0059, 3-[3-[[ethyl(methyl)sulfamoyl]amino]-2-fluoro-benzoyl]-5-[6-(trifluoromethyl)-3-pyridyl]-1H-pyrrolo[2,3-b]pyridine]
CCN(C)S(=O)(=O)Nc1cccc(C(=O)c2c[nH]c3ncc(-c4ccc(C#N)c(OC)c4)cc23)c1F [P-0060, 5-(4-cyano-3-methoxy-phenyl)-3-[3-[[ethyl(methyl)sulfamoyl]amino]-2-fluoro-benzoyl]-1H-pyrrolo[2,3-b]pyridine]
O=C(c1cccc(NS(=O)(=O)N2CCCC2)c1F)c1c[nH]c2ncc(-c3ccc(F)cc3)cc12 [P-0062, N-[2-fluoro-3-[5-(4-fluorophenyl)-1H-pyrrolo[2,3-b]pyridine-3-carbonyl]phenyl]pyrrolidine-1-sulfonamide]
O=C(c1cccc(NS(=O)(=O)N2CCCC2)c1F)c1c[nH]c2ncc(-c3ccccc3)cc12 [P-0063, N-[2-fluoro-3-(5-phenyl-1H-pyrrolo[2,3-b]pyridine-3-carbonyl)phenyl]pyrrolidine-1-sulfonamide]
CN(C)S(=O)(=O)Nc1cccc(C(=O)c2c[nH]c3ncc(-c4cnc(NC5CC5)nc4)cc23)c1F [P-0064, 5-[2-(cyclopropylamino)pyrimidin-5-yl]-3-[3-(dimethylsulfamoylamino)-2-fluoro-benzoyl]-1H-pyrrolo[2,3-b]pyridine]
COCCS(=O)(=O)Nc1cccc(C(=O)c2c[nH]c3ncc(-c4cnc(OC)nc4)cc23)c1F [P-0065, N-[2-fluoro-3-[5-(2-methoxypyrimidin-5-yl)-1H-pyrrolo[2,3-b]pyridine-3-carbonyl]phenyl]-2-methoxy-ethane sulfonamide]
CC(C)CN(C)S(=O)(=O)Nc1cccc(C(=O)c2c[nH]c3ncc(I)cc23)c1F [P-0070, 3-[2-fluoro-3-[[isobutyl(methyl)sulfamoyl]amino]benzoyl]-5-iodo-1H-pyrrolo[2,3-b]pyridine]
CC(C)NS(=O)(=O)Nc1cccc(C(=O)c2c[nH]c3ncc(I)cc23)c1F [P-0071, [2-fluoro-3-(isopropylsulfamoylamino)phenyl]-(5-iodo-1H-pyrrolo[2,3-b]pyridin-3-yl)methanone]
COc1ncc(-c2cnc3[nH]cc(C(=O)c4cccc(NS(=O)(=O)N(C)CC(C)C)c4F)c3c2)cn1 [P-0072, 3-[2-fluoro-3-[[isobutyl(methyl)sulfamoyl]amino]benzoyl]-5-(2-methoxypyrimidin-5-yl)-1H-pyrrolo[2,3-b]pyridine]
COCCN(C)S(=O)(=O)Nc1cccc(C(=O)c2c[nH]c3ncc(-c4cnc(OC)nc4)cc23)c1F [P-0073, 3-[2-fluoro-3-[[2-methoxyethyl(methyl)sulfamoyl]amino]benzoyl]-5-(2-methoxypyrimidin-5-yl)-1H-pyrrolo[2,3-b]pyridine]
COc1ncc(-c2cnc3[nH]cc(C(=O)c4cccc(NS(=O)(=O)N5CCCC5C)c4F)c3c2)cn1 (stereo not drawn) [P-0074, N-[2-fluoro-3-[5-(2-methoxypyrimidin-5-yl)-1H-pyrrolo[2,3-b]pyridine-3-carbonyl]phenyl]-2-methyl-pyrrolidine-1-sulfonamide]
CCN(C)S(=O)(=O)Nc1cccc(C(=O)c2c[nH]c3ncc(-c4ccc(N(C)C)nc4)cc23)c1F [P-0076, 5-[6-(dimethylamino)-3-pyridyl]-3-[3-[[ethyl(methyl)sulfamoyl]amino]-2-fluoro-benzoyl]-1H-pyrrolo[2,3-b]pyridine]
CCN(C)S(=O)(=O)Nc1cccc(C(=O)c2c[nH]c3ncc(-c4cnc(NC5CC5)nc4)cc23)c1F [P-0077, 5-[2-(cyclopropylamino)pyrimidin-5-yl]-3-[3-[[ethyl(methyl)sulfamoyl]amino]-2-fluoro-benzoyl]-1H-pyrrolo[2,3-b]pyridine]
CCCN(C)S(=O)(=O)Nc1ccc(F)c(C(=O)c2c[nH]c3ncc(-c4cnc(C5CC5)nc4)cc23)c1F [P-0078, 5-(2-cyclopropylpyrimidin-5-yl)-3-[2,6-difluoro-3-[[methyl(propyl)sulfamoyl]amino]benzoyl]-1H-pyrrolo[2,3-b]pyridine]
COCCN(C)S(=O)(=O)Nc1cccc(C(=O)c2c[nH]c3ncc(-c4ccc(C5(C#N)CC5)cc4)cc23)c1F [P-0080, 5-[4-(1-cyanocyclopropyl)phenyl]-3-[2-fluoro-3-[[2-methoxyethyl(methyl)sulfamoyl]amino]benzoyl]-1H-pyrrolo[2,3-b]pyridine]
COCCN(C)S(=O)(=O)Nc1cccc(C(=O)c2c[nH]c3ncc(-c4cnc(NC5CC5)nc4)cc23)c1F [P-0081, 5-[2-(cyclopropylamino)pyrimidin-5-yl]-3-[2-fluoro-3-[[2-methoxyethyl(methyl)sulfamoyl]amino]benzoyl]-1H-pyrrolo[2,3-b]pyridine]
CN(CC1CC1)S(=O)(=O)Nc1cccc(C(=O)c2c[nH]c3ncc(-c4cnc(C5CC5)nc4)cc23)c1F [P-0084, 3-[3-[[cyclopropylmethyl(methyl)sulfamoyl]amino]-2-fluoro-benzoyl]-5-(2-cyclopropylpyrimidin-5-yl)-1H-pyrrolo[2,3-b]pyridine]
